Tested on: subjects with moderately to severely active RA who have an inadequate response to methotrexate (MTX)
Test: Study 1 (add-on to MTX) - ACR responses (ACR20/50/70)
Format: in vivo, human
Description: The terms “ACR20”, “ACR50” and “ACR70” as used herein are scores which indicate how much a patient's rheumatoid arthritis has improved according to criteria set out by the American College of Rheumatology (ACR). The ACR score represents a percentage. An ACR20 score means that a person's RA has improved by 20%, an ACR50 score means it has improved by 50%, and an ACR70 score means it has improved by 70%. Specifically, to qualify for an ACR20 score, a person with RA must have at least 20% fewer tender joints and at least 20% fewer swollen joints. In addition the patient must show a 20% improvement in at least three of the following five areas: the person's overall (global) assessment of his or her own RA, the physician's global assessment of the person's RA, the person's assessment of his or her own pain, the person's assessment of his or her own physical functioning, and the results of an erythrocyte sedimentation rate or C-reactive protein (CRP) blood test (both of which test for inflammation). ACR50 and ACR70 scores use the same criteria but require 50% and 70% improvement, respectively, (Felson et al., 1993). In the data presented herein the CRP blood test is used.
Double-blind, placebo-controlled add on study in subjects with moderately to severely active RA who have an inadequate response to methotrexate (MTX) (oral or parenteral).
595 subjects randomized to one of 6 dose regimens of Compound 1 (dosed as [Compound 1:HCl:3H2O]) (3 dose levels administered either once or twice daily) or placebo on top of each subject's stable dose of MTX.
Compound 1 (dosed as [Compound 1:HCl:3H2O]) is dosed for twelve weeks once daily (q.d.) (50 mg, 100 mg or 200 mg) or twice daily (b.i.d.) (25 mg, 50 mg or 100 mg); or placebo.
At Week 12, the subjects on placebo who have not achieved 20% improvement in swollen joint count (SJC66) and tender joint count (TJC68) are re-randomized automatically to receive Compound 1 (dosed as a [Compound 1:HCl:3H2O]) either at 100 mg q.d. or 50 mg b.i.d. doses in a blinded fashion; subjects on 50 mg q.d. who have not achieved 20% improvement in SJC66 and TJC68 will be assigned to 100 mg q.d. and subjects on 25 mg b.i.d. that have not achieved a 20% improvement in SJC66 and TJC68 will be assigned to 50 mg b.i.d. Subjects who switch treatment at week 12 are handled as if they discontinued at week 12 for the purpose of statistical analysis, whereas subjects in the other groups will maintain their randomized treatment until Week 24.
The American College of Rheumatology (ACR) composite score, which evaluates clinical improvement relative to an initial assessment, is a commonly accepted efficacy end point for clinical trials in patients with rheumatoid arthritis. The ACR score correspond to a percentage improvement in pre-set parameters, and therefore measures the evolution of the disease in a patient. For example, ACR20 denotes at least 20% improvement in tender and swollen joint counts and in three of the following end points: global assessment by the patient, global assessment by the doctor, C reactive protein (CRP), patient's pain Visual Analogue Scale and Health Assessment Questionnaire Score. The number of swollen joints, ESR and CRP correlate with radiographic progression of joint damage, whereas tender joint counts, as well as global assessments by doctors and patients, and patients' reports of pain, are sensitive to change in clinical outcomes. Physical function, as assessed by the Health Assessment Questionnaire Score, is a potent predictor of the risk of disability in rheumatoid arthritis (Felson and American College of Rheumatology Committee to Reevaluate Improvement Criteria, 2007; Felson et al., 1993).
In particular, the list of parameters used to assess ACR score can be found in the Table XCVI below and the results of the ACR responses at week 12 via either NRI or LOCF are shown in the tables below. The Hommel-corrected p-value for the pairwise comparisons of each group with placebo is shown. […]

[1] = 100 mg q.d., week 12, 12 weeks results
[2] = 100 mg q.d., week 12, 24 weeks results
[3] = 100 mg q.d., week 16, 24 weeks results
[4] = 100 mg q.d., week 20, 24 weeks results
[5] = 100 mg q.d., week 24, 24 weeks results
[6] = 100 mg q.d., at week 1, 12 weeks results
[7] = 100 mg q.d., at week 1, 24 weeks results
[8] = 100 mg q.d., week 8, 12 weeks results
[9] = 200 mg q.d., week 2, 12 weeks results
[10] = 200 mg q.d., week 2, 24 weeks results
[11] = 200 mg q.d., week 4, 12 weeks results
[12] = 200 mg q.d., week 4, 24 weeks results
[13] = 200 mg q.d., week 8, 24 weeks results
[14] = 200 mg q.d., week 12, 12 weeks results
[15] = 200 mg q.d., week 12, 24 weeks results
[16] = 200 mg q.d., week 16, 24 weeks results
[17] = 200 mg q.d., week 20, 24 weeks results
[18] = 200 mg q.d., week 24, 24 weeks results
[19] = 200 mg q.d., at week 1, 12 weeks results
[20] = 200 mg q.d., at week 1, 24 weeks results
[21] = 200 mg q.d., week 8, 12 weeks results

SMILES: O=C(Nc1nc2cccc(-c3ccc(CN4CCS(=O)(=O)CC4)cc3)n2n1)C1CC1 [Compound 1, cyclopropanecarboxylic acid {5-[4-(1,1-dioxo-thiomorpholin-4-ylmethyl)-phenyl]-[1,2,4]triazolo[1,5-a]pyridin-2-yl}-amide]
- ACR70 (LOCF) [1]: 22.4%
- ACR70 (NRI) [1]: 20.0%
- ACR20 (LOCF) [2]: 67.1%
- ACR20 (NRI) [2]: 62.4%
- ACR50 (LOCF) [2]: 41.2%
- ACR50 (NRI) [2]: 38.8%
- ACR70 (LOCF) [2]: 22.4%
- ACR70 (NRI) [2]: 20.0%
- ACR20 (LOCF) [3]: 69.4%
- ACR20 (NRI) [3]: 64.7%
- ACR50 (LOCF) [3]: 55.3%
- ACR70 (LOCF) [3]: 27.1%
- ACR20 (LOCF) [4]: 76.5%
- ACR20 (NRI) [4]: 69.4%
- ACR50 (LOCF) [4]: 50.6%
- ACR70 (LOCF) [4]: 32.9%
- ACR20 (LOCF) [5]: 72.9%
- ACR20 (NRI) [5]: 60.0%
- ACR50 (LOCF) [5]: 54.1%
- ACR70 (LOCF) [5]: 37.6%
- ACR20 (LOCF) [6]: 32.9%
- ACR20 (NRI) [6]: 34.1%
- ACR50 (LOCF) [6]: 5.9%
- ACR50 (NRI) [6]: 5.9%
- ACR70 (LOCF) [6]: 0.0%
- ACR70 (NRI) [6]: 0.0%
- ACR20 (LOCF) [7]: 34.1%
- ACR20 (NRI) [7]: 34.1%
- ACR50 (LOCF) [7]: 5.9%
- ACR50 (NRI) [7]: 5.9%
- ACR70 (LOCF) [7]: 0.0%
- ACR70 (NRI) [7]: 0.00%
- ACR20 (LOCF) [8]: 63.5%
- ACR20 (NRI) [8]: 63.5%
- ACR50 (LOCF) [8]: 35.3%
- ACR50 (NRI) [8]: 34.1%
- ACR70 (LOCF) [8]: 23.5%
- ACR70 (NRI) [8]: 22.4%
- ACR20 (LOCF) [9]: 48.8%
- ACR20 (NRI) [9]: 48.8%
- ACR50 (LOCF) [9]: 11.6%
- ACR50 (NRI) [9]: 11.6%
- ACR70 (LOCF) [9]: 5.8%
- ACR70 (NRI) [9]: 5.8%
- ACR20 (LOCF) [10]: 48.8%
- ACR20 (NRI) [10]: 48.8%
- ACR50 (LOCF) [10]: 11.6%
- ACR50 (NRI) [10]: 11.6%
- ACR70 (LOCF) [10]: 5.8%
- ACR70 (NRI) [10]: 5.8%
- ACR20 (LOCF) [11]: 55.8%
- ACR20 (NRI) [11]: 55.8%
- ACR50 (LOCF) [11]: 16.3%
- ACR50 (NRI) [11]: 17.4%
- ACR70 (LOCF) [11]: 4.7%
- ACR70 (NRI) [11]: 4.7%
- ACR20 (LOCF) [12]: 55.8%
- ACR20 (NRI) [12]: 55.8%
- ACR50 (LOCF) [12]: 17.4%
- ACR50 (NRI) [12]: 17.4%
- ACR70 (LOCF) [12]: 4.7%
- ACR70 (NRI) [12]: 4.7%
- ACR20 (LOCF) [13]: 69.8%
- ACR20 (NRI) [13]: 69.8%
- ACR50 (LOCF) [13]: 34.9%
- ACR50 (NRI) [13]: 34.9%
- ACR70 (LOCF) [13]: 18.6%
- ACR70 (NRI) [13]: 18.6%
- ACR20 (LOCF) [14]: 70.9%
- ACR20 (NRI) [14]: 68.6%
- ACR50 (LOCF) [14]: 44.2%
- ACR50 (NRI) [14]: 43.0%
- ACR70 (LOCF) [14]: 24.4%
- ACR70 (NRI) [14]: 24.4%
- ACR20 (LOCF) [15]: 70.9%
- ACR20 (NRI) [15]: 69.8%
- ACR50 (LOCF) [15]: 44.2%
- ACR50 (NRI) [15]: 43.0%
- ACR70 (LOCF) [15]: 24.4%
- ACR70 (NRI) [15]: 24.4%
- ACR20 (LOCF) [16]: 74.4%
- ACR20 (NRI) [16]: 73.3%
- ACR50 (LOCF) [16]: 50.0%
- ACR70 (LOCF) [16]: 26.7%
- ACR20 (LOCF) [17]: 76.7%
- ACR20 (NRI) [17]: 73.3%
- ACR50 (LOCF) [17]: 54.7%
- ACR70 (LOCF) [17]: 24.4%
- ACR20 (LOCF) [18]: 77.9%
- ACR20 (NRI) [18]: 73.3%
- ACR50 (LOCF) [18]: 54.7%
- ACR70 (LOCF) [18]: 31.4%
- ACR20 (LOCF) [19]: 25.6%
- ACR20 (NRI) [19]: 27.9%
- ACR50 (LOCF) [19]: 4.7%
- ACR50 (NRI) [19]: 4.7%
- ACR70 (LOCF) [19]: 1.2%
- ACR70 (NRI) [19]: 1.2%
- ACR20 (LOCF) [20]: 27.9%
- ACR20 (NRI) [20]: 27.9%
- ACR50 (LOCF) [20]: 4.7%
- ACR50 (NRI) [20]: 4.7%
- ACR70 (LOCF) [20]: 1.2%
- ACR70 (NRI) [20]: 1.2%
- ACR20 (LOCF) [21]: 68.6%
- ACR20 (NRI) [21]: 68.6%
- ACR50 (LOCF) [21]: 33.7%
- ACR50 (NRI) [21]: 33.7%
- ACR70 (LOCF) [21]: 18.6%

Source: patent US20180200257A1, “METHODS FOR THE TREATMENT OF INFLAMMATORY DISORDERS” (Galapagos NV, priority 2015, published 2018)
